# Source: patent US20260174677A1, “METHODS OF TREATING INSULIN RESISTANCE AND ASSOCIATED DISORDERS” (The University of Melboune, priority 2022, published 2026)
# Test system: ARC CSPG-ECM
# Assay: Intranasal PZ6005 in diet-induced obese mice: WFA immunostaining of CSPG-ECM within the ARC
# Format: in vivo, mouse
# Settings: 14 days; for ARC CSPG-ECM area, lower than the controls / ARC CSPG-ECM intensity, decrease: 12-week-HFHS-diet-fed obese mice
# Description: For detection of aggrecan, GFP, HABP, parvalbumin, mCherry, versican, tenascin-C, HAPLN1, neurocan, phosphacan, brevican, WFA and WFA-FITC sections were incubated at room temperature for 1 h in blocking buffer (0.3% Triton X-100, 5% normal goat serum, Gibco, ThermoFisher, MA, 0.02% sodium azide) and then overnight at 4° C. in 1% blocking buffer containing either rabbit anti-aggrecan (1:1000, AB1031, Millipore, MA), chicken anti-GFP (1:2000; ab13970, Abcam, Cambridge, UK), Biotinylated HABP (1:100, 385911, Burlington, MA), sheep anti-parvalbumin (1:1000), in house), rabbit anti-dsRed (1:2000, 600-401-379, Rockland, PA), rabbit anti-versican (1:1000, AB1033, Millipore, MA), tenascin-C (1:500, M1-B4, Developmental Studies Hybridoma Bank, Iowa), HAPLN1 (1:500, 9/30/8-A-4, Developmental Studies Hybridoma Bank, Iowa), neurocan (1:300, 1F6-S, Developmental Studies Hybridoma Bank, Iowa), phophacan (1:300, 3F8, Developmental Studies Hybridoma Bank, Iowa), brevican (1:500, 610895, BD Transduction Laboratories), biotinylated WFA (1:2000, L1516; Sigma-Aldrich, MO), WFA-FITC (1:2000, FL-1351-2, Vector Laboratories, CA), rabbit anti PGP9.5 (1:1000, 14730-1-AP, Proteintech, IL), guinea pig anti AgRP (1:500, AS506, Antibodies Australia, Melbourne, AUS). After washing with PBS-T (0.3% Triton X-100 in PBS, +0.02% sodium azide), sections were incubated with goat anti-chicken Alexa Fluor 488 (ab150169, Abcam, Cambridge, UK), goat anti-rabbit Alexa Fluor-488, 595, 647 (ab150077, ab150080, ab150083, Abcam, Cambridge, UK), donkey anti-sheep Alexa Fluor 594 (ab150180, Abcam, Cambridge, UK), Alexa Fluor 594, 647 Streptavidin (405240, BioLegend, CA)—conjugated secondary antibodies in 5% blocking buffer for 2 h at room temperature. […] Brightness and contrast in the colour merged images have been adjusted to aid in the analysis of co-incidence.
# All image quantification was performed in Image J (NIH) software (NIH, MA). Raw images underwent background subtraction using a rolling ball algorithm to minimize background and any potential variance in tissue autofluorescence. To quantify area and intensity of the CSPG-ECM within each brain region (ARC, VMH or RSG cortex) images were thresholded and binarized to create a region of interest (ROI) mask of only the CSPG-ECM. For each brain area, CSPG-ECM ROI area (μm^2) and intensity (sum of all pixel intensities within the ROI) was calculated. This process was automated to minimise bias and to account for differences in brain nuclei size across multiple images. Brain nuclei were defined in accordance with the Paxinos and Franklin mouse brain atlas (http://labs.gaidi.ca/mouse-brain-atlas/). The area and intensity of CSPG-ECM within each region was normalised to the respective control.
# Conscious mice were restrained by scruffing and inverted parallel to the floor with the chin at ˜180-degree angle with the neck. Using a 10 μL tip, a pipettor was loaded with 5 μl of vehicle (ddH2O) or fluorosamine (1 mg/animal in 20 μl or 5 mg/animal in 20 μl). The tip of the filled pipettor was placed near the left nostril at a 45-degree angle, and the drug was ejected to form a small 5 μl droplet at tip for the mouse to inhale. Immediately after the mouse inhaled the first droplet the remaining solution was ejected to form another small droplet for the mouse to inhale through the same nostril. The mouse was held in this position for 15 seconds before the procedure was repeated in the right nostril.
compound,measurement,setting,value
"CC(=O)NC1C(OC(C)=O)OC(COC(C)=O)[C@@H](F)C1OC(C)=O (some centres unmarked) [fluorosamine, per-O-acetylated-4-F-N-acetylglucosamine]","ARC CSPG-ECM area, lower than the controls",I.N. 1 mg/animal/day,13.54±1.03%
same,"ARC CSPG-ECM intensity, decrease",I.N. 1 mg/animal/day,15.94±7.17%
same,"ARC CSPG-ECM intensity, decrease",I.N. 5 mg/animal/day (highest dose),30.16±1.52%
same,"ARC CSPG-ECM area, lower than the controls",I.N. 5 mg/animal/day,13.59±4.09%
same,ARC neurofibrosis,"intranasal, diet-induced obese mice, dose not given",successfully attenuated ARC neurofibrosis
